Assay results as given in patent publication US8912329B2 (priority 2009, dated 2014).

The compounds below were run against EthR-VP16 (Mycobacterium bovis, UniProt Q7TVI1) (assay: cell-based). Details: 48 h, read-out: % EthR activity (w/o = 100%); ± std. dev. of the mean (n = 3).
Set-up: species or system M. bovis

Sequence of EthR-VP16 (Q7TVI1 whole entry, looked up): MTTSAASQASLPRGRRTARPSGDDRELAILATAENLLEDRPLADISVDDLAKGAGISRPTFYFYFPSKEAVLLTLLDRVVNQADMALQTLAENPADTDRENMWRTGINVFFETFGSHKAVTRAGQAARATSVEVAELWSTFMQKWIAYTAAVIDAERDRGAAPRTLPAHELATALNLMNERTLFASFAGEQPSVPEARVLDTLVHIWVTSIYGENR

Compound	remaining activity at 0.5 µM [%]	remaining activity at 1.5 µM [%]	remaining activity at 3 µM [%]	remaining activity at 6 µM [%]	remaining activity at 15 µM [%]	remaining activity at 30 µM [%]	remaining activity at 60 µM [%]	remaining activity at 300 µM [%]
CCCC(=O)N1CCN(Cc2ccccc2)CC1 [Example 1, 1-(4-Benzylpiperazin-1-yl)butan-1-one]	72.5 ± 1.65	76.5 ± 17.5	68.7 ± 2.79	73.2 ± 1.19	72.6 ± 6.82	64.1 ± 14	53.1 ± 7.78	27.3 ± 5.27
CCCC(=O)N1CCOC(c2ccccc2)C1 (stereo not drawn) [Example 3, 1-(2-Phenylmorpholino)butan-1-one]	85.5 ± 2.57	96.82 ± 0.67	84.4 ± 6.37	90.1 ± 6.44	98.4 ± 4.51	86.5 ± 4.1	81.9 ± 8.6	40.2 ± 4.65
CCCC(=O)N1CCC(c2ccccc2)C1 (stereo not drawn) [Example 13, 1-(3-Phenylpyrrolidin-1-yl)butan-1-one]	30.4 ± 3.98	17.7 ± 2.01	11 ± 2.88	10.9 ± 1.45	12.4 ± 0.99	14.5 ± 7.8	10.8 ± 1.34	12 ± 1.27
O=C(Cc1cccs1)N1CCOC(c2ccccc2)C1 (stereo not drawn) [Example 14, 1-(2-Phenylmorpholin-4-yl)-2-(thiophen-2-yl)ethan-1-one]	106 ± 19.8	86.2 ± 1.36	85.9 ± 6.26	74.8 ± 1.22	60.5 ± 1.32	35.4 ± 5.3	25.5 ± 3.82	9.16 ± 1.37
O=C(CCc1ccco1)N1CCN(Cc2ccccc2)CC1 [Example 18, 1-(4-Benzylpiperazin-1-yl)-3-(furan-2-yl)propan-1-one]	91.9 ± 3.57	80.7 ± 8.89	81.4 ± 15.9	59.3 ± 1.2	44.2 ± 2.35	11.2 ± 1.68	12.4 ± 1.85	1.74 ± 0.26
CC(C)CC(=O)N1CCOC(c2ccccc2)C1 (stereo not drawn) [Example 19, 3-Methyl-1-(2-phenylmorpholin-4-yl)butan-1-one]	95.6 ± 9.07	102 ± 4.13	95.9 ± 9.02	96.4 ± 13.5	76 ± 6.56	35.2 ± 5.28	33.5 ± 5.96	27.6 ± 0.37
CC(C)(C)CC(=O)N1CCOC(c2ccccc2)C1 (stereo not drawn) [Example 20, 3,3-Dimethyl-1-(2-phenylmorpholin-4-yl)butan-1-one]	96.6 ± 11.1	90.9 ± 14	88.2 ± 8.63	89 ± 4.56	75.5 ± 6.63	43.7 ± 3.21	33 ± 6.41	35.5 ± 1.37
O=C(CCc1ccccc1)N1CCOC(c2ccccc2)C1 (stereo not drawn) [Example 21, 3-Phenyl-1-(2-phenylmorpholin-4-yl)propan-1-one]	108 ± 7.36	98.5 ± 16.4	73.5 ± 7.58	60.2 ± 8.98	40.8 ± 4.81	8.33 ± 5.61	6.29 ± 1.05	1.34 ± 1.58
O=C(CCc1ccccc1)N1CCC1c1ccccc1 (stereo not drawn) [Example 22, 3-Phenyl-1-(2-phenylazetidin-1-yl)propan-1-one]	90 ± 15.2	106 ± 10	97.4 ± 5.01	90.2 ± 8.48	77.8 ± 4.33	59.4 ± 4.5	33.2 ± 2.46	6.34 ± 0.89
O=C(CCCc1ccccc1)N1CCC1c1ccccc1 (stereo not drawn) [Example 23, 4-Phenyl-1-(2-phenylazetidin-1-yl)butan-1-one]	96.3 ± 10	102 ± 12.3	101 ± 9.55	90.1 ± 9.21	86.8 ± 5.76	81.5 ± 5.22	49.4 ± 1.49	6.18 ± 2.53
O=C(CCc1ccccc1)N1CC(Cc2ccccc2)C1 [Example 25, 1-(3-Benzylazetidin-1-yl)-3-phenylpropan-1-one]	86.8 ± 9.98	88.5 ± 8.12	69.5 ± 4.27	48 ± 5.86	28.7 ± 3.22	19.5 ± 0.89	14.2 ± 3.23	6.03 ± 2
O=C(CCCc1ccccc1)N1CC(Cc2ccccc2)C1 [Example 27, 1-(3-Benzylazetidin-1-yl)-4-phenylbutan-1-on]	59.6 ± 2.49	42.6 ± 1.49	37.9 ± 5.47	31.3 ± 3.58	31.7 ± 1.36	26.3 ± 9.65	17.5 ± 4.51	15.3 ± 2.79
CCCCC(=O)N1CCN(Cc2ccccc2)CC1 [Example 28, 1-(4-Benzylpiperazin-1-yl)pentan-1-one]	97.1 ± 9.36	81.5 ± 3.01	59.4 ± 4.9	46.2 ± 2.55	38.3 ± 2.21	18.5 ± 3.64	11.7 ± 2.77	10.2 ± 1.94
CCCCCC(=O)N1CCN(Cc2ccccc2)CC1 [Example 29, 1-(4-Benzylpiperazin-1-yl)hexan-1-one]	85.4 ± 9.96	56 ± 5.54	36.5 ± 3.17	26.5 ± 0.73	16.9 ± 0.73	16.7 ± 3.59	10 ± 2.93	12.9 ± 4.6
CCCCC(=O)N1CCOC(c2ccccc2)C1 (stereo not drawn) [Example 30, 1-(2-Phenylmorpholin-4-yl)pentan-1-one]	112 ± 16.1	111 ± 17.1	101 ± 5.87	90.5 ± 5.55	69.2 ± 8.71	43.3 ± 2.01	26.9 ± 2.34	14.9 ± 3
CCCCCC(=O)N1CCOC(c2ccccc2)C1 (stereo not drawn) [Example 31, 1-(2-Phenylmorpholin-4-yl)hexan-1-one]	106 ± 17.5	103 ± 16.4	94.1 ± 15.9	63.7 ± 5.26	33.2 ± 1.27	25 ± 4.22	17.8 ± 4.01	15 ± 2.11
CCCCC(=O)N1CCC(c2ccccc2)C1 (stereo not drawn) [Example 32, 1-(3-Phenylpyrrolidin-1-yl)pentan-1-one]	12.5 ± 5.97	10.7 ± 2.55	10.4 ± 2.69	9.96 ± 3.44	5.65 ± 1.1	8.77 ± 1.57	8.89 ± 1.74	1.56 ± 0.8
CCCCCC(=O)N1CCC(c2ccccc2)C1 (stereo not drawn) [Example 33, 1-(3-Phenylpyrrolidin-1-yl)hexan-1-one]	11.4 ± 3.47	14.9 ± 5.68	5.8 ± 2.33	3.83 ± 1.01	4.58 ± 1.34	5.01 ± 0.8	5.24 ± 2.58	2.78 ± 1.33
